# Assay results as given in patent publication US20100278983A1, “COMPOSITION OF MONASCUS FERMENTED PRODUCT WITH A FUNCTION THAT REDUCES BODY FATNESS FORMATION AND THE METHOD FOR MANUFACTURING THE SAME” (SUNWAY BIOTECH CO., LTD., priority 2009, published 2010).
# Tests used:
# 3T3-L1 preadipocyte [1] = assay: Proliferation rate of 3T3-L1 preadipocyte; type: cell-based; details: for decrease of proliferation rate of 3T3-L1 preadipocyte: 24 hours
# Excerpt: (§1) 3T3-L1 preadipocyte is used as the experimental material in the in vitro cellular experiments to probe into the effects of Monascus fermented product on proliferation and differentiation in preadipocyte.
# [2] = Body weight of rats fed with high-fat diet and Monascus fermented product; type: in vivo, male Wister rats; details: after 6 weeks of feeding, dosage not stated
# Excerpt: In order to estimate the effects of Monascus fermented product on the decrease in body fat mass development and body weight-lowering, the present invention carried out in vitro cellular experiments and in vivo experiments. 3T3-L1 preadipocyte is used as the experimental material in the in vitro cellular experiments to probe into the effects of Monascus fermented product on proliferation and differentiation in preadipocyte. Male Wister rates are used as the experimental animals in the in vivo experiments and fed with high-fat diet and Monascus fermented products at the same time, then determine the effects of the decrease in body fat mass development by many evaluation indicators after […] of breeding.
# Rats are randomly divided into to 9 groups, each include 8 rats, on the principles that the initial average weights of rats are unanimous. Rats are fed with high-fat diet and Monascus fermented product at the same time in experiments and then sacrificed for every analyses after 6 weeks of feeding. […]
# 3T3-L1 preadipocyte [3] = assay: Differentiation rate of 3T3-L1 preadipocyte (content of triglyceride, TG); type: cell-based; details: Mus musculus; for inhibition at 125 µg/mL: 0.125 mg/mL
# Method: as §1
# In this research, 50, 100 and 200 μg/mL of water extracts of red mold rice and red mold dioscorea are added to 3T3-L1 preadipocyte respectively during differentiation induction and then the cells are collected to be analyzed the content of triglyceride after 8 days of differentiation. TG synthesis is an indicator for the differentiation late phase of the fat cells, thus the TG content in cells are usually used to determine the differentiation rate.
SMILES,decrease of proliferation rate of 3T3-L1 preadipocyte (3T3-L1 preadipocyte [1]; 1.25 μg/mL) [%],decrease of proliferation rate of 3T3-L1 preadipocyte (3T3-L1 preadipocyte [1]; 2.5 μg/mL) [%],decrease of proliferation rate of 3T3-L1 preadipocyte (3T3-L1 preadipocyte [1]; 5 μg/mL) [%],decrease of proliferation rate of 3T3-L1 preadipocyte (3T3-L1 preadipocyte [1]; 10 μg/mL) [%],Final body weight [2] [g],Increment of body weight [2] [g],inhibition at 125 µg/mL (3T3-L1 preadipocyte [3]) [%],inhibition at 250 µg/mL (3T3-L1 preadipocyte [3]; 0.25 mg/mL) [%],"inhibition at 1000 µg/mL (3T3-L1 preadipocyte [1]; Mus musculus, 3T3-L1, 1 mg/mL, 72 hours) [%]"
CC[C@H](C)C(=O)O[C@H]1C[C@@H](C)C=C2C=C[C@H](C)[C@H](CC[C@@H]3C[C@@H](O)CC(=O)O3)[C@H]21 [Monacolin K],13.0,18.2,23.9,28.6,472.4,141.1,–,–,–
C/C=C/C1=CC2=C(CO1)C(=O)[C@]1(C)OC(=O)[C@H](C(=O)CCCCCCC)[C@H]1C2 [ankaflavin],–,–,–,–,–,–,41.2,29.9,–
C/C=C/C1=CC2=C(CO1)C(=O)[C@]1(C)OC(=O)[C@H](C(=O)CCCCC)[C@H]1C2 [monascin],–,–,–,–,–,–,31.2,–,8
